Data taken from ChEMBL document CHEMBL1130023, “Conformationally constrained [p-(omega-aminoalkyl)phenacetyl]-L-seryl-L-lysyl dipeptide amides as potent peptidomimetic inhibitors of Candida albicans and human myristoyl-CoA:protein N-myristoyl transferase” (J Med Chem, 1997).
Non-standard residues stand in square brackets, D forms with d. Residues, ends and D or L forms follow the SMILES beside them. *: point of attachment. Cha = N[C@@H](CC1CCCCC1)C(=O)O; Chg = N[C@H](C(=O)O)C1CCCCC1; NHPhenethyl = c1ccc(CCN*)cc1; 12Ado = NCCCCCCCCCCCC(=O)O; Aun = NCCCCCCCCCCC(=O)O; Ahp = NCCCCCCC(=O)O; βAla = NCCC(=O)O; Sar = CNCC(=O)O

Columns and labels:
[1] = biological target: T1, Glycylpeptide N-tetradecanoyltransferase (Candida albicans (strain SC5314 / ATCC MYA-2876) (Yeast), UniProt P30418); assay: Inhibitory activity against N-myristoyltransferase (NMT) of candida albicans
T1 sequence (P30418 whole entry): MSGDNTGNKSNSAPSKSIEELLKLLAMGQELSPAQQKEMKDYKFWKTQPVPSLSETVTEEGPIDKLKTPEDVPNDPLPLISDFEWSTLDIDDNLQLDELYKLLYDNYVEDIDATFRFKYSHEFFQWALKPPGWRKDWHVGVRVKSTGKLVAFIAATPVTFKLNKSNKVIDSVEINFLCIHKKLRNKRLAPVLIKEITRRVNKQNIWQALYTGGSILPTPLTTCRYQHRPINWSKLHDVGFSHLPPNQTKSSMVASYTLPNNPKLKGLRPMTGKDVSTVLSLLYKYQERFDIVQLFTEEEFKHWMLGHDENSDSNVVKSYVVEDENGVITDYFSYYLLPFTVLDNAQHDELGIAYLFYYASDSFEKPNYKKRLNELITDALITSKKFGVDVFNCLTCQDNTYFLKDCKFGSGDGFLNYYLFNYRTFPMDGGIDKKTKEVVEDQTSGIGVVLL

[2] = biological target: T2, Peptide N-myristoyltransferase (Homo sapiens, UniProt P30419+O60551); assay: Inhibition of human N-myristoyltransferase (NMT); type: protein assay
T2 sequence (P30419 whole entry): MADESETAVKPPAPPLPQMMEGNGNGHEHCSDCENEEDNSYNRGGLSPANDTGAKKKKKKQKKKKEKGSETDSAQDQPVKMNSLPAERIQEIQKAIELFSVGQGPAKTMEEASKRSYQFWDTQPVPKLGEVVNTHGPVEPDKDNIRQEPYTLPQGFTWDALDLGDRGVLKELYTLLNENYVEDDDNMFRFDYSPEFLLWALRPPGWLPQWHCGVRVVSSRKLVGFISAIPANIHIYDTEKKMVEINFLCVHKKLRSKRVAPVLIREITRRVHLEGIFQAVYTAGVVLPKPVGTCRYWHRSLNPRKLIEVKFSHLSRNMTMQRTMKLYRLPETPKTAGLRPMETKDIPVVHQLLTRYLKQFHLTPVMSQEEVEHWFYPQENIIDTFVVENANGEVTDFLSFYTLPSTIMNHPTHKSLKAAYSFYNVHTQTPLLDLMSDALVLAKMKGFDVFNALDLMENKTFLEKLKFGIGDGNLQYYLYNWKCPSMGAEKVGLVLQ
T2 sequence (O60551 whole entry): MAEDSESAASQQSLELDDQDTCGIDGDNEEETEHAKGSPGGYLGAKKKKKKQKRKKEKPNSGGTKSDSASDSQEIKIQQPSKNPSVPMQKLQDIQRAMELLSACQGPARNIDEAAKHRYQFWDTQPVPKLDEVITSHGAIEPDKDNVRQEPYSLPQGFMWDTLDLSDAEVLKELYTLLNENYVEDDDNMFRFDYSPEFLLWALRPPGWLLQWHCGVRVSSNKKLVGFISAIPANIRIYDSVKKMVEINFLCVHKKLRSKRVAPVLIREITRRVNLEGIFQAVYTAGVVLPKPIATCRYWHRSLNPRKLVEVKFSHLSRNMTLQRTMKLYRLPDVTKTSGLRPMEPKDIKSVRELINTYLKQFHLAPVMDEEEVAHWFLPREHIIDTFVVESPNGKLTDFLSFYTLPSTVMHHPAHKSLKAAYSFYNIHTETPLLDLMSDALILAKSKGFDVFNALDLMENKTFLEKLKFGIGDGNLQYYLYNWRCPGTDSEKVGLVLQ

[3] = Ratio of the IC50 against human NMT to the IC50 against Candida albicans NMT.
[4] = biological target: T2, Peptide N-myristoyltransferase; assay: The binding affinity was evaluated against the acyl transferase's peptide, N-myristoyltransferase binding site; type: protein assay
[5] = biological target: Glycylpeptide N-tetradecanoyltransferase (Candida albicans) (UniProt P30418); assay: The binding affinity was evaluated towards N-myristoyltransferase (NMT) in the presence of the peptide substrate GNAASARR-NH2

Row | Molecule | IC50 [1] | also measured
1 | CC(C)CCNC(=O)[C@@H](CCCCN)NC(=O)[C@@H](CO)NC(=O)CCCCCCCCCCN | 365 µM | –
2 | NCCCCCCCCCCC(=O)N[C@@H](CO)C(=O)N[C@@H](CCCCN)C(=O)NCCCC1CCCCC1 | 1.3 µM | –
3 | COC(=O)[C@H](CC(C)C)NC(=O)[C@H](CCCCN)NC(=O)[C@H](CO)NC(=O)CCCCCCCCCCN(C)C | 0.69 µM | –
4 | NCCCCCCCCCCC(=O)N[C@@H](CO)C(=O)N[C@@H](CCCCN)C(=O)N[C@@H](Cc1ccccc1)C(N)=O (H-[Aun]SKF-NH2) | 8.2 µM | –
5 | C[C@H](NC(=O)[C@H](CCCCN)NC(=O)[C@H](CO)NC(=O)CCCCCCCCCCN)C(N)=O (H-[Aun]SKA-NH2) | 16 µM | –
6 | NCCCCCc1cccc(CC(=O)N[C@@H](CO)C(=O)N[C@@H](CCCCN)C(=O)NCCC2CCCCC2)c1 | 0.52 µM | IC50 [2]: 1.8 µM; Ratio [3]: 3.5
7 | H-ALYASKLS-NH2 | – | Ki app [4]: 15.3 µM
8 | NCCCCCCCCc1ccc(CC(=O)N[C@@H](CO)C(=O)N[C@@H](CCCCN)C(=O)NCCC2CCCCC2)cc1 | 0.75 µM | IC50 [2]: 53 µM; Ratio [3]: 70
9 | NCCCCCCc1ccc(CC(=O)N[C@@H](CO)C(=O)N[C@@H](CCCCN)C(=O)NCCC2CCCCC2)cc1 | 0.11 µM | IC50 [2]: 0.8 µM; Ratio [3]: 7.3; Ki [5]: 0.06 µM
10 | NCCCC[C@H](NC(=O)[C@H](CO)NC(=O)Cc1ccc(C#Cc2ccc(CN)cc2)cc1)C(=O)NCCC1CCCCC1 | > 10 µM | –
11 | NCCCC[C@H](NC(=O)[C@H](CO)NC(=O)Cc1ccc(CCc2ccc(CN)cc2)cc1)C(=O)NCCC1CCCCC1 | 0.75 µM | IC50 [2]: 62 µM; Ratio [3]: 83
12 | CC[C@H](C)[C@H](NC(=O)[C@H](CCCCN)NC(=O)[C@H](CO)NC(=O)CCCCCCCCCCN)C(N)=O (H-[Aun]SKI-NH2) | 3.9 µM | –
13 | CC(C)[C@H](NC(=O)[C@H](CCCCN)NC(=O)[C@H](CO)NC(=O)CCCCCCCCCCN)C(N)=O (H-[Aun]SKV-NH2) | 19 µM | –
14 | COC(=O)[C@H](CC(C)C)NC(=O)[C@H](CCCCN)NC(=O)[C@H](CO)NC(=O)CCCCCCCCCN | 0.3 µM | –
15 | NCCCCCCCCCCC(=O)N[C@@H](CO)C(=O)N[C@@H](CCCCN)C(=O)NCCc1ccccc1 (H-[Aun]-Ser-Lys-NHPhenethyl) | 5 µM | –
16 | NCCCC[C@H](NC(=O)[C@H](CO)NC(=O)CCCCC#Cc1ccc(CN)cc1)C(=O)NCCC1CCCCC1 | 0.17 µM | IC50 [2]: 0.76 µM; Ratio [3]: 4.5
17 | COC(=O)[C@H](CC(C)C)NC(=O)[C@H](CCCCN)NC(=O)[C@H](CO)NC(=O)CCCCCCCCN | 5.2 µM | –
18 | CNCCCCCCCCCCC(=O)N[C@@H](CO)C(=O)N[C@@H](CCCCN)C(=O)N[C@@H](CC(C)C)C(=O)OC | 0.35 µM | –

Row | Molecule | IC50 [1] | also measured
19 | COC(=O)[C@H](CC(C)C)NC(=O)[C@H](CCCCN)NC(=O)[C@H](CO)NC(=O)CCCCCCN (H-[Ahp]SKL-OMe) | > 100 µM | –
20 | CC(C)C[C@H](NC(=O)[C@H](CCCCN)NC(=O)[C@H](CO)NC(=O)CCCCCCCCCCN)C(N)=O (stereo in doubt) | > 1000 µM | –
21 | COC(=O)[C@H](CC(C)C)NC(=O)[C@H](CCCCN)NC(=O)[C@H](CO)NC(=O)CCCCCCCCCCCN (H-[12Ado]SKL-OMe) | 0.27 µM | –
22 | CC(C)(C)CCNC(=O)[C@H](CCCCN)NC(=O)[C@H](CO)NC(=O)CCCCCCCCCCN | 1.2 µM | –
23 | CC(C)CCNC(=O)[C@H](CCCCN)NC(=O)[C@H](CO)NC(=O)CCCCCCCCCCN | 0.78 µM | Ratio [3]: 0.5
24 | CC(C)C[C@H](NC(=O)[C@H](CCCCN)NC(=O)[C@H](CO)NC(=O)CCCCCCCCCCN)C(N)=O (stereo in doubt; 3a) | 1.2 µM | –
25 | CC(C(=O)N[C@@H](CO)C(=O)N[C@@H](CCCCN)C(=O)NCCC1CCCCC1)c1ccc(CCCCCCN)cc1 (stereo not given in full) | 0.043 µM | IC50 [2]: 0.79 µM; Ratio [3]: 18
26 | NCCCCCCCCCCC(=O)N[C@@H](CO)C(=O)N[C@@H](CCCCN)C(=O)N[C@@H](CC1CCCCC1)C(N)=O (H-[Aun]SK[Cha]-NH2) | 0.36 µM | –
27 | CNCC(=O)N[C@@H](CC(C)C)C(=O)N[C@@H](Cc1ccc(O)cc1)C(=O)N(C)CC(=O)N[C@@H](CO)C(=O)N[C@@H](CCCCN)C(=O)N[C@@H](CC(C)C)C(=O)N[C@@H](CO)C(N)=O (H-[Sar]LY[Sar]SKLS-NH2) | 80 µM | –
28 | CC(C)CNC(=O)[C@H](CCCCN)NC(=O)[C@H](CO)NC(=O)CCCCCCCCCCN | > 10 µM | –
29 | CC(C)C[C@H](NC(=O)CCN)C(=O)N[C@@H](Cc1ccc(O)cc1)C(=O)N[C@@H](C)C(=O)N[C@@H](CO)C(=O)N[C@@H](CCCCN)C(=O)N[C@@H](CC(C)C)C(=O)N[C@@H](CO)C(N)=O (H-[βAla]LYASKLS-NH2) | 110 µM | –
30 | COC(=O)[C@H](CC(C)C)NC(=O)[C@H](CCCCN)NC(=O)[C@H](CO)NC(=O)CCCCCCCCCCN (H-[Aun]SKL-OMe) | 0.6 µM | –
31 | NCCCCCCCCCCC(=O)N[C@@H](CO)C(=O)N[C@@H](CCCCN)C(=O)NCC(N)=O (H-[Aun]SKG-NH2) | 16 µM | –
32 | NCCCCCCCCCCC(=O)N[C@@H](CO)C(=O)N[C@@H](CCCCN)C(=O)NCCCC1CCCCCCC1 | 0.3 µM | IC50 [2]: 1.14 µM; Ratio [3]: 3.8
33 | NCCCCCc1ccc(CC(=O)N[C@@H](CO)C(=O)N[C@@H](CCCCN)C(=O)NCCC2CCCCC2)cc1 | 0.19 µM | IC50 [2]: 0.99 µM; Ratio [3]: 5.2
34 | NCCCCCCCCCCC(=O)N[C@@H](CO)C(=O)N[C@@H](CCCCN)C(=O)N[C@H](C(N)=O)C1CCCCC1 (H-[Aun]SK[Chg]-NH2) | 0.76 µM | –
35 | NCCCC[C@H](NC(=O)[C@H](CO)NC(=O)CCCCCCc1ccc(CN)cc1)C(=O)NCCC1CCCCC1 | 0.34 µM | IC50 [2]: 1.5 µM; Ratio [3]: 4.4
